# Test results published in article PMC9818267, “Brain Natriuretic Peptide Protects Cardiomyocytes from Apoptosis and Stimulates Their Cell Cycle Re-Entry in Mouse Infarcted Hearts” (Cells, 2022).
# Like-named read-outs stand apart in the source and are kept apart here. No end group written: not given here.
# Assays:
# cleaved caspase-3 = test: Western blot cleaved caspase-3 in infarct zone; format: in vivo, mouse; conditions: ZI one day after MI, BNP vs saline
# Source text: At sacrifice, mice were weighted, the heart excised and weighted. The apex was embedded into OCT and slowly frozen for immunohistochemistry analysis. For quantitative RT-PCR (qRT-PCR) and/or Western blot analysis, the rest of the heart was quickly frozen in N2. Hearts from infarcted animals were separated into 3 zones for molecular and cellular analysis including CM isolation: (1) the infarction zone (ZI), (2) the border zone (BZ) and (3) the remote zone (RZ). The different areas were processed under microscopy: the ZI area is easily detectable by the color and the presence of the suture, the BZ corresponds to 0.5 mm tissue around the ZI and the rest of the heart is the RZ.
# Total proteins were extracted from CMs isolated from adult infarcted and unmanipulated neonatal and adult hearts. Proteins were transferred to nitrocellulose membranes (Biorad) before incubation with primary antibodies overnight at 4 °C. Secondary antibodies were added 1 h at RT in the dark (Supplementary File S1). The signal was detected and quantified with the Odyssey infrared imaging system (LI-COR. Biosciences, Bad Homburg, Germany). All results were normalized to the tubulin protein level or to the total protein level thanks to stainings with the Revert 700 Total protein Stain (LI-COR).
# Nkx2.5+ myocytes = conditions: cited from earlier work
# neonatal CMs = test: Neonatal cardiomyocyte culture treated with BNP; format: cell-based, mouse
# Procedure: Neonatal (1–2 days) C57BL/6 pups were sacrificed and CMs were isolated by enzymatic digestion according to the method previously described. Briefly, the chest was opened and the heart removed. After separation of the atria from the rest of the heart, the ventricles were minced and digested with 0.45 mg/mL collagenase (Worthington, Biochemical Corporation, Lakewood, NJ, USA) and 1 mg/mL pancreatin (Sigma). After 3 rounds of digestion, cells were plated 2 times for 45 min in order to separate CMs (non-adherent cells) from the non-myocyte cells (NMCs). Thereafter, CMs were plated on gelatine (0.1%) coated plates and cultured in 3:1 mixture of DMEM and Medium 199 (Invitrogen Corp, San Diego, CA, USA) supplemented with 10% horse serum (Oxoid), 5% fetal bovine serum (Invitrogen), 10 mM Hepes, 100 U/mL penicillin G. To homogenize the experiment, 70,000 CMs were plated per well.
# Immediately after plating, neonatal CMs were treated or not with BNP for 14 days. To inhibit NMC proliferation and to work on 95% pure CMs, cells were exposed the first 7 days of culture to cytosine-β-D-arabinofuranoside (AraC, 1 mg/mL). After 7 days of culture, AraC was removed until 14 days of culture. CMs were cultured in a hypoxia chamber (Stem Cell Technologies) flushed with 3% O2/5% CO2/92% N2 (Carbagas). Indeed, we previously observed that low oxygen concentration stimulates CM dedifferentiation and proliferation. Medium was replaced 1–2 times/week.
# CMs were treated with 3 different concentrations of BNP: 10 nM, 100 nM and 1000 nM and compared to untreated cells. Quantitative RT-qPCR, Western blot analysis as well as immunohistochemistry studies were performed after 14 days of culture.
# [1] = neonatal CMs in vitro, BNP vs untreated
# [2] = neonatal CMs in vitro, BNP vs untreated, 14 days
substance,measurement,setting,value
"Brain Natriuretic Peptide (SQGSTLRVQQRPQNSKVTHISSCFGHKIDRIGSVSRLGCNALKLL; not fully specified; ends and bridges not checked; UniProt P40753 77-121, looked up) [BNP, synthetic mouse BNP (1–45) peptide (Bachem, catalog number H-7558)]",caspase 3 protein level change,cleaved caspase-3,−42%
same,increase in Nkx2.5+ myocytes,Nkx2.5+ myocytes; adult BNP-treated hearts,68%
same,increase in Nkx2.5+ myocytes,Nkx2.5+ myocytes; neonatal BNP-treated hearts,22.5%
same,increase of number of CMs in culture,"neonatal CMs; 10 nM BNP, 14 days, 3% O2, vs untreated",18%
same,number of small and mononucleated CMs,neonatal CMs; BNP-treated neonatal CM cultures vs untreated,higher number
same,cyclin A2 mRNA increase,neonatal CMs; [1],40%
same,cyclin B2 mRNA increase,neonatal CMs; [1],30%
same,cyclin D1 mRNA increase,neonatal CMs; [1],50%
same,increase of percentage of CMs expressing Aurkb,neonatal CMs; [2],50%
same,increase of percentage of CMs expressing Ki67,neonatal CMs; [2],23%
